“Also recorded” adds a separate entry of the source.
Tests used:
[1] = target: T1, ELIC L240A (L9′A) + A75D/F133W (Dickeya chrysanthemi, UniProt P0C7B7, A75D/F133W/L239A); assay: Two-electrode voltage clamp, L9′A + A75D/F133W triple mutant ELIC expressed in Xenopus laevis oocytes; type: cell-based, Erwinia chrysanthemi
T1 construct: expressed in transfected cells; host or cells: Xenopus laevis oocytes injected with cRNA
Method: (§1) Stage V-VI Xenopus laevis oocytes were isolated[72] and deflocculated enzymatically in ND96 buffer without Ca^2+ (96 mM NaCl, 2 mM KCl, 1 mM MgCl2, 2 mM pyruvate, 5 mM HEPES, pH 7.4), but supplemented with 1 mg/mL collagenase B and 1 mg/mL trypsin inhibitor, for 2 h at room temperature under constant stirring. The deflocculation buffer was then gradually removed by washing the oocytes in ND96 buffer (96 mM NaCl, 2 mM KCl, 1 mM MgCl2, 1 mM CaCl2, 2 mM pyruvate, 5 mM HEPES, pH 7.4) for several iterations. The oocytes were then allowed to stir for an additional hour at room temperature under constant stirring with the buffer being periodically replaced until clear. To obtain optimal receptor expression, individually selected and healthy oocytes were injected with 0.2 ng cRNA for wild-type ELIC and 5 ng cRNA for mutants. Subsequently, oocytes were incubated for one day at 16 °C in ND96^+ buffer (96 mM NaCl, 2 mM KCl, 1 mM MgCl2, 1 mM CaCl2, 2 mM pyruvate, and 5 mM HEPES at pH 7.6). After expression, injected oocytes were placed in a RC-1Z oocyte chamber (Harvard Apparatus; Hamden, CT) containing buffer (pH 7.4) composed of 150 mM NaCl, 0.5 mM BaCl2, 10 mM HEPES, and 1 mM dithiothreitol or 1 µM atropine if cysteamine, or ACh, was used in the experiment, respectively. The presence of the reducing agent, dithiothreitol, ensures that the sulfhydryl group of cysteamine remains reduced.
(§2) Once in the oocyte chamber, whole-cell currents were recorded using a two-electrode voltage-clamp apparatus (OC-725C oocyte clamp; Harvard Apparatus), with a buffer flow rate of 5–10 mL min^−1. Currents in response to various additions of cysteamine and/or ACh, were measured with the transmembrane voltage clamped at −60 mV. Dose response curves for each wild-type and mutant ELIC were acquired from at least five oocytes in two different batches.
(§3) For identifying the half maximal effective concentration (EC50) and apparent Hill coefficient (nH) of cysteamine, dose response curves were created by taking the magnitude of each cysteamine-activated peak current (I) and normalizing this value to the maximal peak current in the presence of excess agonist (Imax). The log (base 10) cysteamine concentration in molar was then plotted on the x-axis against the fractional response (I/Imax) on the y-axis. The data was fitted using nonlinear regression with a variable slope sigmoidal dose response (Eq. 1, below) in GraphPad Prism (v.8.0.0).1 y=1/1+10^nH^LogEC50−X
(§4) Individual EC50 and Hill coefficients were averaged for each oocyte to derive a mean ± standard deviation. For identifying a half maximal inhibitory concentration (IC50) and Hill coefficient of ACh, a concentration of cysteamine corresponding to its EC50 was used in the presence of increasing concentrations of ACh. […]

[2] = target: T2, wild-type ELIC (Dickeya chrysanthemi, UniProt P0C7B7, INS163G); assay: Two-electrode voltage clamp, whole-cell currents of wild-type ELIC expressed in Xenopus laevis oocytes; type: cell-based, Erwinia chrysanthemi
T2 construct: expressed in transfected cells; host or cells: Xenopus laevis oocytes injected with cRNA from ELIC-pTLN
Method: as §1, §2, §3
Individual EC50 and Hill coefficients were averaged for each oocyte to derive a mean ± standard deviation. […] […] The log (base 10) ACh concentration was then plotted on the x-axis against the fractional response (I/Io) on the y-axis. Subsequent steps were the same as above for deriving a cysteamine EC50 and Hill coefficient. The individual IC50 and Hill coefficients were averaged for each oocyte to derive a mean ± one standard deviation. Lastly, to identify four normalized response values, cysteamine at the 10% maximal effective concentration (EC10), 20% maximal effective concentration (EC20), EC50 and 90% maximal effective concentration (EC90), was applied in the presence and absence of 25 mM ACh. The cysteamine-activated peak current with 25 mM ACh, was normalized to the cysteamine-activated peak current without ACh.

[3] = target: ELIC F133W (Dickeya chrysanthemi, UniProt P0C7B7, F133W); assay: cell-based; type: cell-based, Erwinia chrysanthemi; settings: F133W
Method: as §1, §2, §3
(§5) Individual EC50 and Hill coefficients were averaged for each oocyte to derive a mean ± standard deviation. For identifying a half maximal inhibitory concentration (IC50) and Hill coefficient of ACh, a concentration of cysteamine corresponding to its EC50 was used in the presence of increasing concentrations of ACh. Peak currents elicited from cysteamine with ACh (I) were normalized to the initial cysteamine peak current in the absence of ACh (Io). The log (base 10) ACh concentration was then plotted on the x-axis against the fractional response (I/Io) on the y-axis. Subsequent steps were the same as above for deriving a cysteamine EC50 and Hill coefficient. The individual IC50 and Hill coefficients were averaged for each oocyte to derive a mean ± one standard deviation. Lastly, to identify four normalized response values, cysteamine at the 10% maximal effective concentration (EC10), 20% maximal effective concentration (EC20), EC50 and 90% maximal effective concentration (EC90), was applied in the presence and absence of 25 mM ACh. The cysteamine-activated peak current with 25 mM ACh, was normalized to the cysteamine-activated peak current without ACh.

[4] = test system: ELIC Y38W; assay: Two-electrode voltage clamp, Y38W mutant ELIC expressed in Xenopus laevis oocytes; type: cell-based, Erwinia chrysanthemi; settings: Y38W
Method: as §1, §2, §3, §5

[5] = target: ELIC Y38W (Dickeya chrysanthemi, UniProt P0C7B7, Y38W); assay: as above; type: cell-based, Erwinia chrysanthemi; settings: Y38W
Method: as §1, §2, §3, §5

[6] = target: T2, wild-type ELIC; settings: cited from earlier work
[7] = target: T3, ELIC I79Y (Dickeya chrysanthemi, UniProt P0C7B7, I79Y/INS163G); assay: Two-electrode voltage clamp, I79Y mutant ELIC expressed in Xenopus laevis oocytes; type: cell-based, Erwinia chrysanthemi
T3 construct: expressed in transfected cells; host or cells: Xenopus laevis oocytes injected with cRNA from ELIC-pTLN
Method: as §1, §2, §3
as §5, with “The cysteamine-activated peak current with 25 mM ACh, was normalized to the cysteamine-activated peak current without ACh.” left out

[8] = target: T4, ELIC L240A (L9′A) (Dickeya chrysanthemi, UniProt P0C7B7, L239A); assay: Two-electrode voltage clamp, L240A (L9′A) mutant ELIC expressed in Xenopus laevis oocytes; type: cell-based, Erwinia chrysanthemi
T4 construct: expressed in transfected cells; host or cells: Xenopus laevis oocytes injected with cRNA from ELIC-pTLN
Method: as §1, §2, §3, §4

[9] = cysteamine as agonist, read-out: Activation EC50
[10] = ACh 0.5 mM to 50 mM, followed by 5 mM cysteamine
[11] = read-out: Cysteamine concentration corresponding to EC90

Question: With `NCCS` [cysteamine] as the compound, how does the “Current on application of ligand alone” value ([1]; L9′A + A75D/F133W, 30 s applications of ACh 0.5 to 50 mM, then 5 mM cysteamine) read?
Answer: robust peak current; also recorded: robust activation

Question: What about the “Activation Hill coefficient” value ([1]; L240A (L9′A) + A75D/F133W, cysteamine as agonist) of the same compound?
Answer: 3.7 ± 0.3

Question: What about the EC50 ([1]; L240A (L9′A) + A75D/F133W, cysteamine as agonist, read-out: Activation EC50) of the same compound?
Answer: 4.3 ± 0.6 mM

Question: And the “Cysteamine concentration corresponding to EC10” value ([2]; WT)?
Answer: 0.2 mM

Question: What about the “Cysteamine concentration corresponding to EC20” value ([2]; WT) of the same compound?
Answer: 0.3 mM

Question: And the “Activation Hill coefficient” value ([2]; WT ELIC, agonist activation)?
Answer: 2.6 ± 0.4

Question: And the EC50 ([2]; WT ELIC, agonist-activated peak current, −60 mV, mean ± s.d., read-out: Activation EC50)?
Answer: 0.6 ± 0.1 mM

Question: What about the “Peak current on application of ligand alone” value (“Peak current on application” below) ([2]; WT, ACh 0.5 mM to 50 mM, followed by 5 mM cysteamine) of the same compound?
Answer: robust peak current

Question: What about the EC90 ([2]; WT, read-out: Cysteamine concentration corresponding to EC90) of the same compound?
Answer: 1.3 mM

Question: What about the “Cysteamine concentration corresponding to EC10” value [3] of the same compound?
Answer: 1.6 mM

Question: What about the “Cysteamine concentration corresponding to EC20” value [3] of the same compound?
Answer: 2.3 mM

Question: And the “Increase in EC50 for cysteamine relative to wild-type” value [3]?
Answer: 7 fold

Question: And the “Activation Hill coefficient” value ([3]; cysteamine as agonist)?
Answer: 2.3 ± 0.3

Question: What about the EC50 [3, 9] of the same compound?
Answer: 4.3 ± 0.6 mM

Question: And the “Peak current on application” value [3, 10]?
Answer: robust peak current

Question: What about the EC90 [3, 11] of the same compound?
Answer: 11.3 mM

Question: What about the “Change in EC50 for cysteamine compared to wild-type” value [4] of the same compound?
Answer: unchanged

Question: What about the “Cysteamine concentration corresponding to EC10” value [5] of the same compound?
Answer: 0.1 mM

Question: And the “Cysteamine concentration corresponding to EC20” value [5]?
Answer: 0.2 mM

Question: What about the “Activation Hill coefficient” value ([5]; cysteamine as agonist) of the same compound?
Answer: 1.4 ± 0.2

Question: What about the EC50 [5, 9] of the same compound?
Answer: 0.5 ± 0.1 mM

Question: What about the “Peak current on application” value [5, 10] of the same compound?
Answer: robust peak current

Question: And the EC90 [5, 11]?
Answer: 2.6 mM

Question: What about the “Action on ELIC” value [6] of the same compound?
Answer: agonists

Question: What about the “Increase in EC50 for cysteamine relative to wild-type” value [7] of the same compound?
Answer: 24 fold

Question: What about the “Peak current on application” value [7, 10] of the same compound?
Answer: robust peak current

Question: What about the “Activation Hill coefficient” value ([7]; estimate, cysteamine application for 30 s, 1.5 mM to 100 mM) of the same compound?
Answer: 2.2 ± 0.3

Question: And the EC50 ([7]; estimate, cysteamine application for 30 s, 1.5 mM to 100 mM, read-out: Activation EC50)?
Answer: 14 ± 1 mM

Question: And the “Current on application of ligand alone” value ([8]; L9′A, 30 s applications of ACh 0.5 to 50 mM, then 5 mM cysteamine)?
Answer: robust peak current; also recorded: robust activation

Question: What about the “Activation Hill coefficient” value ([8]; L240A (L9′A), cysteamine as agonist) of the same compound?
Answer: 2.8 ± 0.1

Question: And the EC50 ([8]; L240A (L9′A), cysteamine as agonist, read-out: Activation EC50)?
Answer: 0.15 ± 0.01 mM
